Source: PubChem BioAssay AID743333 (Broad Institute, 2014)
Active and inactive are the calls of the source.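 How the source made its calls: active means signal falls with dose and an IC50 can be fitted at or below twice the top valid tested dose; inconclusive means flat fit showing 30 to 70% loss, or poor fit; inactive means activity in the rising direction, plus the rest.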

Assays:
[1] = A549 viability loss, ATP readout – cell-based, plate reader, dry powder, set 8, cytotoxicity control, dose response (AID 743333); details: A549 viability, CellTiter-Glo ATP luminescence, 72 h; at 15 µM (top of the series)
[2] = tested on: A549 viability, CellTiter-Glo ATP luminescence, 72 h; assay: as above

Row | SMILES | activity change, negative = cytotoxicity [1] | IC50 [2]
1 | Cc1cnc(NC(=O)c2cc(S(=O)(=O)N3CCOCC3)ccc2N2CCCC2)s1 | -9.98% (inactive) | 
2 | COc1ccc2nc(NC(=O)c3cc(S(=O)(=O)N(C)C)ccc3N3CCCC3)sc2c1 | -4.45% (inactive) | 
3 | Cc1cnc(NC(=O)c2cc(S(=O)(=O)N(C)C)ccc2N2CCCC2)s1 | -12% (inactive) | 
4 | CN(C)S(=O)(=O)c1ccc(N2CCCC2)c(C(=O)Nc2nc3ccccc3s2)c1 | -13.7% (inactive) | 
5 | CCN(CC)c1ccc(S(=O)(=O)N(C)C)cc1C(=O)Nc1ncc(C)s1 |  | > 30 µM (inactive)
6 | COc1cccc2sc(NC(=O)c3cc(S(=O)(=O)N(C)C)ccc3N3CCCC3)nc12 | -2.59% (inactive) | 
7 | Cc1csc(NC(=O)c2cc(S(=O)(=O)N(C)C)ccc2N2CCCC2)n1 | -6.7% (inactive) | 
8 | Cc1cnc(NC(=O)c2cc(S(=O)(=O)N(C)C)ccc2N(C)C)s1 | -6.64% (inactive) | 
9 | CN(C)CCCN(Cc1cc2ccccc2[nH]c1=O)C(=O)Nc1ccccc1 | 2.4% (inactive) | 
10 | Cc1cnc(NC(=O)c2cc(S(=O)(=O)N3CCCC3)ccc2N2CCCC2)s1 | 0.402% (inactive) | 
11 | CN(C)S(=O)(=O)c1ccc(N2CCCC2)c(C(=O)Nc2cccc(F)c2)c1 | -8.14% (inactive) | 
12 | Cc1cnc(NC(=O)c2cc(S(=O)(=O)N3CCCCC3)ccc2N2CCCC2)s1 | 9.07% (inactive) | 
13 | CN(C)S(=O)(=O)c1ccc(N2CCCC2)c(C(=O)Nc2nccs2)c1 | 1.36% (inactive) | 
14 | COc1ccc2sc(NC(=O)c3cc(S(=O)(=O)N(C)C)ccc3N3CCCC3)nc2c1 | 8.3% (inactive) | 
15 | CN(C)S(=O)(=O)c1ccc(N2CCCC2)c(C(=O)Nc2ccccc2)c1 | -5.56% (inactive) | 
16 | Cc1cnc(NC(=O)c2cc(S(=O)(=O)N(C)C)ccc2N2CCC2)s1 | -8.88% (inactive) | 
17 | Cc1ccc(NC(=O)c2cc(S(=O)(=O)N(C)C)ccc2N2CCCC2)cc1 | -13.5% (inactive) | 
18 | Cc1cnc(NC(=O)c2cc(S(=O)(=O)N(C)C)ccc2C2CCCC2)s1 | 0.274% (inactive) | 
19 | CN(C)CCCN(Cc1cc2ccccc2[nH]c1=O)C(=O)NCc1ccccc1 | -4.79% (inactive) | 
